Measured values from ChEMBL document CHEMBL4145514, “Unexplored antifungal activity of linear battacin lipopeptides against planktonic and mature biofilms of C. albicans” (Eur J Med Chem, 2018).
≈ marks a conversion by molar mass, not a printed value. Blank lines part the entries; values can stand above or below the molecule they belong to. Calls of active or inactive are those of the source. The rule behind the calls is not given here. Bridge positions count the residues as written; N and C are the ends. Square brackets hold non-standard residues; d marks the D form. Peptide text beside a SMILES is read from it. * marks the point of attachment. ξ: configuration not given here. Hexanoyl(4ξ-Me) = CCC(C)CCC(=O)*; Myristoyl = CCCCCCCCCCCCCC(=O)*; X2 = CC(C)=CCC/C(C)=C/C(=O)*; X3 = CC[C@H](C)CCCCC(=O)*; dDab = NCC[C@@H](N)C(=O)O; X1 = CCC(C)CCC(O)CC(=O)*; Dab = NCC[C@H](N)C(=O)O

Tests used:
Candida albicans [1] = assay: Antifungal activity against Candida albicans SC5314 after 48 hrs; type: functional; details: SC5314, 48 h
Candida albicans [2] = assay: Synergistic antifungal activity against Candida albicans SC5314 after 48 hrs in presence of 400 nmol AmB; type: functional; details: SC5314, 48 h
Candida albicans [3] = assay: Synergistic antifungal activity against Candida albicans SC5314 assessed as FIC index after 48 hrs in presence of 400 nmol AmB; type: functional
Candida albicans [4] = assay: Synergistic antifungal activity against Candida albicans SC5314 after 48 hrs in presence of 800 nmol AmB; type: functional; details: SC5314, 48 h
Candida albicans [5] = assay: Synergistic antifungal activity against Candida albicans SC5314 assessed as FIC index after 48 hrs in presence of 800 nmol AmB; type: functional
Candida albicans [6] = assay: Ratio of MIC for Candida albicans SC5314 to MIC for Candida albicans SC5314 in presence of 400 nmol AmB; type: functional
Candida albicans [7] = assay: Ratio of MIC for Candida albicans SC5314 to MIC for Candida albicans SC5314 in presence of 800 nmol AmB; type: functional
Candida albicans [8] = assay: Antibiofilm activity against Candida albicans SC5314 incubated for overnight by XTT assay; type: functional
Candida albicans [9] = assay: Induction of eradication of 24 hrs old preformed Candida albicans SC5314 biofilm after 24 to 48 hrs by XTT assay; type: functional
Candida albicans [10] = assay: Induction of eradication of 48 hrs old preformed Candida albicans SC5314 biofilm at 62.5 uM after 24 to 48 hrs by XTT assay; type: functional, organism-based
[11] = Haemolytic activity in mouse RBC at 1 mM incubated for 1 hr relative to control; type: ADME, cell-based, Erythrocyte; details: mouse red blood cells (erythrocytes), read-out: Activity
Candida albicans [12] = assay: Induction of morphological changes in Candida albicans SC5314 assessed as formation of distorted shape cells at MIC after 45 mins by Uranyl acetate/Lead citrate staining based transmission electron microscopic analysis; type: functional, organism-based
Candida albicans [13] = assay: Induction of morphological changes in Candida albicans SC5314 assessed as formation of abnormal curvature of cell membranes at MIC after 45 mins by Uranyl acetate/Lead citrate staining based transmission electron microscopic analysis; type: functional, organism-based
Candida albicans [14] = assay: Induction of morphological changes in Candida albicans SC5314 assessed as disruption of fungal cell walls at 10 times MIC after 45 mins by Uranyl acetate/Lead citrate staining based transmission electron microscopic analysis; type: functional, organism-based
Candida albicans [15] = assay: Induction of morphological changes in Candida albicans SC5314 assessed as disruption of fungal cell membranes at 10 times MIC after 45 mins by Uranyl acetate/Lead citrate staining based transmission electron microscopic analysis; type: functional, organism-based
Candida albicans [16] = assay: Induction of morphological changes in Candida albicans SC5314 assessed as necrosis of cytoplasm at 10 times MIC after 45 mins by Uranyl acetate/Lead citrate staining based transmission electron microscopic analysis; type: functional, organism-based
Candida albicans [17] = assay: Induction of ROS generation in Candida albicans SC5314 after 24 to 48 hrs by DCF-DA staining based fluorescence assay; type: functional, organism-based
Candida albicans [18] = assay: Induction of ROS generation in Candida albicans SC5314 at 0.2 to 100 uM after 24 to 48 hrs in presence of ascorbic acid by DCF-DA staining based fluorescence assay; type: functional, organism-based
Candida albicans [19] = assay: Ratio of MBEC50 for 24 hrs old preformed Candida albicans SC5314 biofilm to MIC for Candida albicans SC5314; type: functional
Lipid bilayer = assay: Disruption of phosphatidylcholine/ phosphatidylinositol/phosphatidylethanolamine membrane at 200 uM by colorimetric assay
[20] = Toxicity in iv dosed Kunming mouse assessed as death counted daily for 14 days; type: organism-based; details: in vivo
Erythrocyte = assay: Haemolytic activity in human RBC incubated for 2 hrs; type: ADME, cell-based
HEK293 = assay: Cytotoxicity against HEK293 cells after 48 hrs by MTT assay; type: cell-based; details: human, hek293, 48 h

Compound: CC(C)C[C@H](NC(=O)[C@H](CCN)NC(=O)[C@H](CCN)NC(=O)[C@@H](Cc1ccccc1)NC(=O)[C@H](CC(C)C)NC(=O)[C@H](CCN)NC(=O)[C@H](CCN)NC(=O)[C@@H](CCN)NC(=O)OCC1c2ccccc2-c2ccccc21)C(N)=O
- MIC (Candida albicans [1]): 12.5 µM (≈ 13.9 µg/mL)

Compound: CC(=O)N[C@H](CCN)C(=O)N[C@@H](CCN)C(=O)N[C@@H](CCN)C(=O)N[C@@H](CC(C)C)C(=O)N[C@H](Cc1ccccc1)C(=O)N[C@@H](CCN)C(=O)N[C@@H](CCN)C(=O)N[C@@H](CC(C)C)C(N)=O
- MIC (Candida albicans [1]): > 100 µM
- Activity (Lipid bilayer): inactive

Compound: CCC(C)CCC(=O)N[C@H](CCN)C(=O)N[C@@H](CCN)C(=O)N[C@@H](CC(C)C)C(=O)N[C@H](Cc1ccccc1)C(=O)N[C@@H](CCN)C(N)=O (some centres not stated) ({Hexanoyl(4ξ-Me)}-[dDab][Dab]L[dF][Dab]-NH2)
- MIC (Candida albicans [1]): > 100 µM

Compound: CCCCCCCCCCCCCC(=O)N[C@H](CCN)C(=O)N[C@@H](CCN)C(=O)N[C@@H](CCN)C(=O)N[C@@H](CC(C)C)C(=O)N[C@H](Cc1ccccc1)C(=O)N[C@@H](CCN)C(=O)N[C@@H](CCN)C(=O)N[C@@H](CC(C)C)C(N)=O (Myristoyl-[dDab][Dab][Dab]L[dF][Dab][Dab]L-NH2)
- MIC (Candida albicans [1]): 12.5 µM (≈ 13.8 µg/mL)

Compound: CCC(C)CCC(O)CC(=O)N[C@H](CCN)C(=O)N[C@H]1CCNC(=O)[C@H](CC(C)C)NC(=O)[C@H](CCN)NC(=O)[C@H](CCN)NC(=O)[C@@H](Cc2ccccc2)NC(=O)[C@H](CC(C)C)NC(=O)[C@H](CCN)NC1=O (some centres not stated) (X1-[dDab][Dab][Dab]L[dF][Dab][Dab]L; lactam 2-C)
- LD50 at 336 h [20]: 6 mg/kg
- Activity (Erythrocyte): > 750 µg/mL
- Activity (HEK293): > 128 µg/mL

The next lines start with results.

- MIC (Candida albicans [1]): 25 µM (≈ 26.1 µg/mL)
Compound: CCC(C)CCC(=O)N[C@H](CCN)C(=O)N[C@@H](CCN)C(=O)N[C@@H](CCN)C(=O)N[C@@H](CC(C)C)C(=O)N[C@H](Cc1c[nH]c2ccccc12)C(=O)N[C@@H](CCN)C(=O)N[C@@H](CCN)C(=O)N[C@@H](CC(C)C)C(N)=O (some centres not stated)

- MIC (Candida albicans [1]): > 100 µM
Compound: CC[C@H](C)CCCCC(=O)N[C@@H](CCN)C(=O)N[C@H](C(=O)N[C@@H](CCN)C(=O)N[C@H]1CCNC(=O)[C@H]([C@@H](C)O)NC(=O)[C@H](CCN)NC(=O)[C@H](CCN)NC(=O)[C@H](CC(C)C)NC(=O)[C@@H](Cc2ccccc2)NC(=O)[C@H](CCN)NC1=O)[C@@H](C)O (X3-[Dab]T[Dab][Dab][Dab][dF]L[Dab][Dab]T; lactam 4-C)

- MIC (Candida albicans [1]): 6.25 µM (≈ 17.2 µg/mL)
- MIC (Candida albicans [2]): 1.56 µM
- MIC (Candida albicans [4]): 0.78 µM
Compound: CCC(C)CCC(=O)N[C@H](CCN)C(=O)N[C@@H](CCN)C(=O)N[C@@H](CCN)C(=O)N[C@@H](CC(C)C)C(=O)N[C@H](Cc1ccccc1)C(=O)N[C@@H](CCN)C(=O)N[C@@H](CCN)C(=O)N[C@@H](CC(C)C)C(=O)N[C@H](CCN)C(=O)N[C@@H](CCN)C(=O)N[C@@H](CCN)C(=O)N[C@@H](CC(C)C)C(=O)N[C@H](Cc1ccccc1)C(=O)N[C@@H](CCN)C(=O)N[C@@H](CCN)C(=O)N[C@@H](CC(C)C)C(=O)N[C@H](CCN)C(=O)N[C@@H](CCN)C(=O)N[C@@H](CCN)C(=O)N[C@@H](CC(C)C)C(=O)N[C@H](Cc1ccccc1)C(=O)N[C@@H](CCN)C(=O)N[C@@H](CCN)C(=O)N[C@@H](CC(C)C)C(N)=O (some centres not stated)
- fractional inhibitory concentration index (FICI) (Candida albicans [3]): 1.25
- fractional inhibitory concentration index (FICI) (Candida albicans [5]): 0.62
- Ratio (Candida albicans [6]): 4
- Ratio (Candida albicans [7]): 8 - 32
- MBIC50 (Candida albicans [8]): 6.25 µM
- MBEC50 (Candida albicans [9]): 25 µM
- Activity (Candida albicans [10]): Active
- hemolysis at 1 h, 1000 µM [11]: 21%
- Activity (Candida albicans [12]): Active
- Activity (Candida albicans [13]): Active
- Activity (Candida albicans [14]): Active
- Activity (Candida albicans [15]): Active
- Activity (Candida albicans [16]): Active
- Activity (Candida albicans [17]): Dose-dependent effect
- Activity (Candida albicans [18]): inactive
- Ratio (Candida albicans [19]): 4

- MIC (Candida albicans [1]): > 100 µM
- Activity (Lipid bilayer): inactive
Compound: CCCCC(=O)N[C@H](CCN)C(=O)N[C@@H](CCN)C(=O)N[C@@H](CCN)C(=O)N[C@@H](CC(C)C)C(=O)N[C@H](Cc1ccccc1)C(=O)N[C@@H](CCN)C(=O)N[C@@H](CCN)C(=O)N[C@@H](CC(C)C)C(N)=O

- MIC (Candida albicans [1]): 50 µM (≈ 52.1 µg/mL)
Compound: CC(C)=CCC/C(C)=C/C(=O)N[C@H](CCN)C(=O)N[C@@H](CCN)C(=O)N[C@@H](CCN)C(=O)N[C@@H](CC(C)C)C(=O)N[C@H](Cc1ccccc1)C(=O)N[C@@H](CCN)C(=O)N[C@@H](CCN)C(=O)N[C@@H](CC(C)C)C(N)=O (X2-[dDab][Dab][Dab]L[dF][Dab][Dab]L-NH2)
